Test results reported in PubChem BioAssay AID1963845 (Molecular Pharmacology Branch, DTP, NCI, 2024).

Tested on: 429239-143-T-J1-PDC complex spheroid viability
Assay: Anticancer human tumor 429239-143-T-J1-PDC patient-derived small cell lung carcinoma cell line growth inhibition [POLQ]
Conditions: for IC50: curve of first compound; for viability, T/C: stronger effect = lower value
Outline: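 Complex spheroid viability model combining PDC tumour cells with endothelial (HUVEC) and MSC stromal cells. Novobiocin, ART-558 or RP6685 were tested singly and in combination with standard and investigational anticancer drugs. Each was titrated in half-log steps from near clinical Cmax, or from 10 microM where Cmax was unknown.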

[1] = second compound 0.0316 µM, first compound 0.0316 µM
[2] = second compound 0.0316 µM, first compound 0.1 µM
[3] = second compound 0.0316 µM, first compound 0.316 µM
[4] = second compound 0.0316 µM, first compound 1 µM
[5] = second compound 0.0316 µM, first compound 3.16 µM
[6] = second compound 0.0316 µM, first compound 10 µM
[7] = second compound 0.1 µM, first compound 0.0316 µM
[8] = second compound 0.1 µM, first compound 0.1 µM
[9] = second compound 0.1 µM, first compound 0.316 µM
[10] = second compound 0.1 µM, first compound 1 µM
[11] = second compound 0.1 µM, first compound 3.16 µM
[12] = second compound 0.1 µM, first compound 10 µM
[13] = second compound 0.316 µM, first compound 0.0316 µM
[14] = second compound 0.316 µM, first compound 0.1 µM
[15] = second compound 0.316 µM, first compound 0.316 µM
[16] = second compound 0.316 µM, first compound 1 µM
[17] = second compound 0.316 µM, first compound 3.16 µM
[18] = second compound 0.316 µM, first compound 10 µM
[19] = second compound 1 µM, first compound 0.0316 µM
[20] = second compound 1 µM, first compound 0.1 µM
[21] = second compound 1 µM, first compound 0.316 µM
[22] = second compound 1 µM, first compound 1 µM
[23] = second compound 1 µM, first compound 3.16 µM
[24] = second compound 1 µM, first compound 10 µM
[25] = second compound 3.16 µM, first compound 0.0316 µM
[26] = second compound 3.16 µM, first compound 0.1 µM
[27] = second compound 3.16 µM, first compound 0.316 µM
[28] = second compound 3.16 µM, first compound 1 µM
[29] = second compound 3.16 µM, first compound 3.16 µM
[30] = second compound 3.16 µM, first compound 10 µM
[31] = second compound 10 µM, first compound 0.0316 µM
[32] = second compound 10 µM, first compound 0.1 µM
[33] = second compound 10 µM, first compound 0.316 µM
[34] = second compound 10 µM, first compound 1 µM
[35] = second compound 10 µM, first compound 3.16 µM
[36] = second compound 10 µM, first compound 10 µM
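Further: luminescence signal used as surrogate measure of viable cells; spheroids exposed to compounds for seven days before readout.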
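Wherever viability, T/C is given: 100% = DMSO vehicle control viability as luminescence relative to vehicle.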

## COc1cccc2c1C(=O)c1c(O)c3c(c(O)c1C2=O)CC(O)(C(=O)CO)CC3OC1CC(N)C(O)C(C)O1 (stereo unspecified) + Nc1ccc(C#CCN(C(=O)Cc2ncc(C(F)(F)F)cc2C(F)(F)F)c2ccc(F)cc2)nn1
Second compound 0.0316 µM
  IC50: 75.7 nM
Second compound 0.1 µM
  IC50: 81.6 nM
Second compound 0.316 µM
  IC50: 109 nM
Second compound 1 µM
  IC50: 73.9 nM
Second compound 3.16 µM
  IC50: 70 nM
Second compound 10 µM
  IC50: 67.9 nM
[1]
  viability, T/C: 85.2%
[2]
  viability, T/C: 38.8%
[3]
  viability, T/C: 5.33%
[4]
  viability, T/C: 1.05%
[5]
  viability, T/C: 0.09%
[6]
  viability, T/C: 0.32%
[7]
  viability, T/C: 83.5%
[8]
  viability, T/C: 42.8%
[9]
  viability, T/C: 7.41%
[10]
  viability, T/C: 0.82%
[11]
  viability, T/C: 0.06%
[12]
  viability, T/C: 0.05%
[13]
  viability, T/C: 87.3%
[14]
  viability, T/C: 53.6%
[15]
  viability, T/C: 6.68%
[16]
  viability, T/C: 0.74%
[17]
  viability, T/C: 0.05%
[18]
  viability, T/C: 0.19%
[19]
  viability, T/C: 83.1%
[20]
  viability, T/C: 38.2%
[21]
  viability, T/C: 5.31%
[22]
  viability, T/C: 0.69%
[23]
  viability, T/C: 0.1%
[24]
  viability, T/C: 0.83%
[25]
  viability, T/C: 83.9%
[26]
  viability, T/C: 34.8%
[27]
  viability, T/C: 5.88%
[28]
  viability, T/C: 0.94%
[29]
  viability, T/C: 1.4%
[30]
  viability, T/C: 0.16%
[31]
  viability, T/C: 80.7%
[32]
  viability, T/C: 34.4%
[33]
  viability, T/C: 5.07%
[34]
  viability, T/C: 0.55%
[35]
  viability, T/C: 1.2%
[36]
  viability, T/C: 0.18%

## COc1cc2cc(C(=O)CCC(=O)O)sc2cc1OC + Nc1ccc(C#CCN(C(=O)Cc2ncc(C(F)(F)F)cc2C(F)(F)F)c2ccc(F)cc2)nn1
Second compound 0.0316 µM
  IC50: > 10000 nM
Second compound 0.1 µM
  IC50: > 10000 nM
Second compound 0.316 µM
  IC50: > 10000 nM
Second compound 1 µM
  IC50: > 10000 nM
Second compound 3.16 µM
  IC50: > 10000 nM
Second compound 10 µM
  IC50: > 10000 nM
[1]
  viability, T/C: 90.4%
[2]
  viability, T/C: 108%
[3]
  viability, T/C: 89.8%
[4]
  viability, T/C: 107%
[5]
  viability, T/C: 106%
[6]
  viability, T/C: 119%
[7]
  viability, T/C: 106%
[8]
  viability, T/C: 113%
[9]
  viability, T/C: 101%
[10]
  viability, T/C: 106%
[11]
  viability, T/C: 103%
[12]
  viability, T/C: 97.4%
[13]
  viability, T/C: 105%
[14]
  viability, T/C: 109%
[15]
  viability, T/C: 96.8%
[16]
  viability, T/C: 117%
[17]
  viability, T/C: 95.4%
[18]
  viability, T/C: 101%
[19]
  viability, T/C: 105%
[20]
  viability, T/C: 106%
[21]
  viability, T/C: 94.8%
[22]
  viability, T/C: 97.9%
[23]
  viability, T/C: 100%
[24]
  viability, T/C: 105%
[25]
  viability, T/C: 97%
[26]
  viability, T/C: 107%
[27]
  viability, T/C: 103%
[28]
  viability, T/C: 104%
[29]
  viability, T/C: 94.9%
[30]
  viability, T/C: 99.8%
[31]
  viability, T/C: 96.9%
[32]
  viability, T/C: 105%
[33]
  viability, T/C: 108%
[34]
  viability, T/C: 98.2%
[35]
  viability, T/C: 99.9%
[36]
  viability, T/C: 98.3%

## CCc1c2c(nc3ccc(O)cc13)-c1cc3c(c(=O)n1C2)COC(=O)[C@]3(O)CC + Nc1ccc(C#CCN(C(=O)Cc2ncc(C(F)(F)F)cc2C(F)(F)F)c2ccc(F)cc2)nn1
Second compound 0.0316 µM
  IC50: < 3.16 nM
Second compound 0.1 µM
  IC50: < 3.16 nM
Second compound 0.316 µM
  IC50: < 3.16 nM
Second compound 1 µM
  IC50: < 3.16 nM
Second compound 3.16 µM
  IC50: < 3.16 nM
Second compound 10 µM
  IC50: < 3.16 nM
Second compound 0.0316 µM, first compound 0.00316 µM
  viability, T/C: 12%
Second compound 0.0316 µM, first compound 0.01 µM
  viability, T/C: 8.29%
[1]
  viability, T/C: 7.72%
[2]
  viability, T/C: 6.64%
[3]
  viability, T/C: 4.44%
[4]
  viability, T/C: 1.99%
Second compound 0.1 µM, first compound 0.00316 µM
  viability, T/C: 10.2%
Second compound 0.1 µM, first compound 0.01 µM
  viability, T/C: 7.32%
[7]
  viability, T/C: 7.97%
[8]
  viability, T/C: 6.96%
[9]
  viability, T/C: 4.07%
[10]
  viability, T/C: 3.28%
Second compound 0.316 µM, first compound 0.00316 µM
  viability, T/C: 8.87%
Second compound 0.316 µM, first compound 0.01 µM
  viability, T/C: 7.47%
[13]
  viability, T/C: 6.42%
[14]
  viability, T/C: 7.02%
[15]
  viability, T/C: 6%
[16]
  viability, T/C: 3.04%
Second compound 1 µM, first compound 0.00316 µM
  viability, T/C: 8.25%
Second compound 1 µM, first compound 0.01 µM
  viability, T/C: 8.49%
[19]
  viability, T/C: 7.35%
[20]
  viability, T/C: 7.22%
[21]
  viability, T/C: 4.56%
[22]
  viability, T/C: 1.52%
Second compound 3.16 µM, first compound 0.00316 µM
  viability, T/C: 8.61%
Second compound 3.16 µM, first compound 0.01 µM
  viability, T/C: 7.3%
[25]
  viability, T/C: 8.79%
[26]
  viability, T/C: 8.33%
[27]
  viability, T/C: 4.53%
[28]
  viability, T/C: 2.41%
Second compound 10 µM, first compound 0.00316 µM
  viability, T/C: 6.48%
Second compound 10 µM, first compound 0.01 µM
  viability, T/C: 7.39%
[31]
  viability, T/C: 8.55%
[32]
  viability, T/C: 6.94%
[33]
  viability, T/C: 4.47%
[34]
  viability, T/C: 1.68%
